This note sets out measurements from BindingDB's records for doi:10.1021/acs.jmedchem.8b01394 (Roche Pharma Research and Early Development, 2018).

Molecules are shown by their SMILES.

A short description of assay [1]: Inhibition of RSV Long fusion protein assessed as protection against virus induced cytopathic effect in infected human Hep2 cells after 5 days by CCK8 assay.
Assay [2] in a line: Inhibition of RSV Long fusion protein L138F mutant assessed as protection against virus induced cytopathic effect in infected human Hep2 cells after 5 days by CCK8 assay.
Assay [3] can be described thus: Inhibition of RSV Long fusion protein assessed as decrease in virus induced syncytium formation in infected human HeLa/M cells.

Take `Cc1ccc2nc(N3CCS(=O)(=O)c4ccccc4C3)cc(NCCCCN)c2c1`: the EC50 in assay [1] came out at 7 nM. The same measure, in the same setting: as for `Cc1ccc2nc(N3CCS(=O)(=O)c4ccccc4C3)cc(NCCCCCN)c2c1`, the figure is 27 nM; as for `CS(=O)(=O)c1ccc2nc(N3CCCc4ccccc4C3)cc(NCCN)c2c1`, 5600 nM. On the same count and under the same terms, as for `NCCNc1cc(N2CCS(=O)(=O)c3ccccc3C2)nc2ccccc12`, the figure is 11 nM; as for `NCCNc1cc(N2CCOc3ccccc3C2)nc2ccccc12`, 230 nM; as for `Cc1ccc2nc(N3CCC(F)(F)c4ccccc4C3)cc(NCCN)c2c1`, 62 nM. Same read-out and setting: the figure for `NCC(O)CNc1cc(N2CCc3ccccc3C2)nc2ccccc12` (stereo not drawn) is 220 nM; for `NCC(O)CNc1cc(N2Cc3ccccc3C2)nc2ccccc12` (stereo not drawn) it is greater than 100000 nM; for `NCC(O)CNc1cc(N2CCCc3ccccc3C2)nc2ccccc12` (stereo not drawn) it is 220 nM. Consider `OCC(O)CNc1cc(N2CCc3ccccc3C2)nc2ccccc12` (stereo not drawn), for which the EC50 in assay [1] came to 22000 nM.

As for `CC(O)CNc1cc(N2CCc3ccccc3C2)nc2ccccc12` (stereo not drawn), the concentration giving a half-maximal response (EC50) in assay [1] is greater than 100000 nM. For `NCCNc1cc(N2CCc3ccccc3C2)nc2ccccc12`, in assay [1], the EC50 was found to be 2300 nM.

Take `NCCCCNc1cc(N2CCc3ccccc3C2)nc2ccccc12`: the concentration giving a half-maximal response (EC50) in assay [1] is greater than 100000 nM. The same measure, in the same setting: as for `NC(=O)NCCNc1cc(N2CCc3ccccc3C2)nc2ccccc12`, the figure is 15000 nM. Turning to `NCCNc1cc(N2CCCc3ccccc3C2)nc2ccccc12`, the concentration giving a half-maximal response (EC50) in assay [1] was 200 nM. The IC50 in assay [2] stood at 2300 nM. Turning to `NCCNc1cc(N2CCCc3ccccc3C2)nc2cccc(Cl)c12`, the EC50 in assay [1] stood at 6600 nM. With `NCCNc1cc(N2CCCc3ccccc3C2)nc2cc(Cl)ccc12`, the half-maximal effective concentration (EC50) in assay [1] is greater than 3200 nM. Same read-out and setting: as for `NCCNc1cc(N2CCCc3ccccc3C2)nc2c(Cl)cccc12`, the figure is 1100 nM; as for `Cc1ccc2nc(N3CCCc4ccccc4C3)cc(NCCN)c2c1`, 73 nM; as for `NCCNc1cc(N2CCCc3ccccc3C2)nc2ccc(F)cc12`, 1500 nM.

Take `NCCNc1cc(N2CCCc3ccccc3C2)nc2ccc(C(F)(F)F)cc12`: in assay [1], the EC50 came out at 1100 nM. On the same count and under the same terms, the figure for `Cc1ccc2nc(N3CC(=O)Nc4ccccc4C3)cc(NCCN)c2c1` is 310 nM; for `Cc1ccc2nc(N3CCCc4cc(F)ccc4C3)cc(NCCN)c2c1` it is 460 nM; for `Cc1ccc2nc(N3CCCc4ccc(F)cc4C3)cc(NCCN)c2c1` it is 100 nM. For `Cc1ccc2nc(N3CCS(=O)(=O)c4ccccc4C3)cc(NCCCN)c2c1`, in assay [1], the 50% effective concentration (EC50) is 1 nM.

As to `NCCCNc1cc(N2CCc3ccccc3C2)nc2ccccc12`, in assay [1], the EC50 is 7800 nM.

Take `N=C(N)NCCNc1cc(N2CCc3ccccc3C2)nc2ccccc12`: the EC50 in assay [1] was determined as 2300 nM. Still for that read-out and setting: the figure for `NCCNc1cc(N2CCCc3ccccc3C2)nc2ccc(Cl)cc12` is 120 nM; for `COc1ccc2nc(N3CCCc4ccccc4C3)cc(NCCN)c2c1` it is 320 nM. On the same count and under the same terms, as for `Cc1ccc2nc(N3CCNc4ccccc4C3)cc(NCCN)c2c1`, the figure is 230 nM. As for `Cc1ccc2nc(N3CCS(=O)(=O)c4ccccc4C3)cc(NCCN)c2c1`, the 50% effective concentration (EC50) in assay [1] was found to be 4 nM. Turning to `Cc1ccc(O)c(Cn2c(NC3CCN(CCN)CC3)nc3c(C)cccc32)n1` [JNJ 2408068], the concentration for a half-maximal effect (EC50) in assay [3] was found to be 0.16 nM.
